US20040147458A1, “Compositions to reduce exercise-induced swelling of joints” (priority 2003, published 2004)

Experiments:
[1] = test system: Racing dogs, generally greyhounds; experiment: Joint swelling after racing in racing dogs given ribose before the race; assay type: in vivo, dog
Procedure: Racing dogs, generally greyhounds, are also susceptible to swollen joints after racing. […] The observed dosage for a horse was approximately 100 to 300 mg per kilogram body weight. Based on this observation, a greyhound weighing 65 pounds will benefit from a dose of about two to twelve grams of ribose which is approximately 65 to 300 mg per kilogram. The dosage should be given just before each race or hard workout. […] Administration can be by any convenient means. Ribose has a slightly sweet taste and dogs will readily drink a solution of ribose in water. Alternatively, the ribose solution can be sprayed into the dog's mouth for buccal absorption. […] As for horses, the ribose should not be given more than half an hour before the race or with other food or anything else that would delay absorption.

Standard Bred horses = experiment: Joint swelling after racing in Standard Bred horses given ribose before and/or after each race; assay type: in vivo, horse
From the text: The dosage given should be adjusted carefully to each animal. It has been observed that the swelling reaction is variable; some horses have a great deal of swelling after each race and others are less affected. […] Beginning with a dose of 20 gm ribose, the dosages were adjusted upward. […] Although the weight of the horse was not a factor, the state of nourishment was important. Less well-nourished horses require less ribose for the prophylaxis and therapy of joint swelling. In those horses tested by Applicant, which had been maintained on the ribose-containing supplement, it was seen that a dosage of about 100 or 200 grams of ribose was required to prevent or reduce swelling. In all mammals it may be seen that increasing doses of ribose are necessary to provide the benefit of this invention. This seeming paradox may be due to the fact that mammals receiving ribose as a maintenance dietary supplement have more energy, run faster and thus sustain more acute exercise-related trauma to the joints. It must be stressed that whether or not horses are maintained on a ribose-containing dietary supplement such as that of Applicant, in order to obtain the benefits of this invention, the dosage and timing disclosed above must be followed. Twelve Standard Bred horses, three to eight years of age, were tested. […] The swelling was treated either with cold packs or rest. Time to recovery was approximately one hour to several days. In general, the horses were rested for three days and then exercised by jogging each day, running two miles and then increasing the miles to six to eight. The test horses were put on a schedule of ribose administration in a dosage of 40 gm before each race. […] Therefore, the standard procedure was to administer the optimal dose of ribose both before and after each race. […] Time to recovery of these animals was about ten hours. […] After the horses had been on ribose maintenance for a time, all required higher doses of ribose, up to 100 gm a dose given both before and after racing, in order to show a benefit.

Humans = experiment: Swollen, sore knee joints in human subjects taking ribose; assay type: in vivo
From the text: Non-runners can also experience swelling in the joints. One subject who works in construction and does a lot of lifting frequently has swollen knees with accompanying soreness. […] A heavy equipment operator has suffered from soreness in their knees for several years following an injury to the joint. […] The third subject is a competitive “strong man” who competes in such trials as lifting heavy rocks and pulling buses. In the course of their training and competition, they have stressed their knee joints, which are frequently swollen and sore. […] On one occasion, they ingested a dose of 30 grams of ribose and the soreness in their knees disappeared within twenty minutes.

For `O=C[C@H](O)[C@H](O)[C@H](O)CO` [ribose, D-Ribose], the “prevention or reduction of joint swelling” value ([1]; high dose before the race only) was “adequate in most cases to prevent or reduce joint swelling”, the “expected benefit on swollen joints after racing” value ([1]; proper dosage of ribose, about two to twelve grams for a 65 pound greyhound) was “expected to give the same benefit as is shown for horses” and the “joint swelling after race” value (Standard Bred horses; 40 gm ribose before each race only, twelve horses) was “most of the animals still showed some joint swelling”. For the same compound, the time to recovery (Standard Bred horses; animals with moderate swelling despite ribose before and after race, cold packs applied) was “about ten”, the resumption of training (Standard Bred horses; compared with animals not given ribose before and after racing) was “able to resume training earlier” and the “benefit on swelling, ribose alone” value (Standard Bred horses; easily absorbed dose of ribose alone given immediately before and immediately after each race) was “additional benefit was seen”. The “dose required to show a benefit” value (Standard Bred horses; horses on ribose maintenance for a time, dose given both before and after racing) was “up to 100 gm”, the “joint swelling after race” value (Standard Bred horses; optimal dose of ribose both before and after each race) was “the majority of the animals showed no swelling” and the “fraction of animals showing moderate swelling” value (Standard Bred horses; optimal dose of ribose both before and after each race, cold packs applied) was “About one-third”. The side-effects (Standard Bred horses; ribose at suggested levels) was “no side-effects”, the “attitude of the horses after a race (subjective measure)” value (Standard Bred horses; ribose given only before the race) was “willing to play and move around their stalls” and the “symptoms of swollen and sore knee joints” value (Humans; competitive strong man, doses of five to ten grams) was “symptoms are lessened”. For the same compound, the “time until soreness in knees disappeared” value (Humans; competitive strong man, single dose of 30 grams) was “twenty”, the knee soreness (Humans; construction worker with swollen knees, dose of about five grams) was “soreness subsides” and the knee achiness (Humans; heavy equipment operator, soreness after joint injury, five gram dose) was “effective to lessen the achiness”.
